Values quoted from earlier work as cited in patent US7935348B2, “Combination therapy for the treatment of Alzheimer's disease” (Affiris Forschungs-und Entwicklungs GmbH, priority 2004, dated 2011).
“Also recorded” adds a separate entry of the source.

Columns and labels:
Aβ = conditions: for Aβ amount in the brain: peripheral treatment
Aβ, sequence (P05067 672-711 limits assumed): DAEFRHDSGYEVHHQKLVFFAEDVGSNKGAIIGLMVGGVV

Substance	Aβ amount in the brain (Aβ)	AD-type neuropathologies (PDAPP transgenic mouse; immunization of young animals, before onset (6 weeks))	AD-like neuropathologies (PDAPP transgenic mouse; treatment of older animals (11 months))	Aβ content in the plasma (Aβ; peripheral administration)
GM1	reduction of the Aβ amount in the brain	–	–	–
aggregated Aβ42: aggregated 42-amino acid form of amyloid-β peptide used as a "normal", not mimotope-based vaccine	–	prevented the development of plaque formation, neuritic dystrophy and astrogliosis	markedly reduced AD-like neuropathologies	–
gelsolin	reduction of the Aβ amount in the brain	–	–	not reduced; also recorded: increased Aβ content in the plasma
